Legend:
[1] = tested on: NIH 3T3 cells expressing oncogenic Dbl; test: Dbl-induced cellular transformation (focus formation, growth in low serum, soft agar); type: cell-based, mouse
Protocol: FIGS. 1A-E illustrate that the small molecule 968 inhibits cellular transformation. […] Cells were fixed and stained with crystal violet for counting of foci. Right: 968 was serially diluted (10, 5, 2.5, and 1.25 μM) and evaluated for its ability to inhibit focus formation. […] After 6 days, the cells were counted. 100% represents the number of Dbl-transformed cells counted in the absence of 968 (27.5×10^4 cells). Data represent the average of 3 experiments (±s.d.). […] At the indicated times, the cells were counted. Data represent the average of 3 experiments (±s.d.).
(§1) FIGS. 2A-G illustrate effects of 968 on the transforming activity of constitutively active Rho GTPases and human breast cancer cells. […] Cells were scored after 14 days and plotted as the percentage of the total number of colonies greater than 50 μm in diameter. Data represent the average of 3 experiments (±s.d.). […] Data represent the average of 3 experiments (±s.d.). […] Data represent the average of 3 experiments (±s.d.). […] After 24 hours at 37° C., the migratory cells were fixed, stained with GIEMSA, and counted. Data represent the average of 3 experiments (±s.d.). […] Data represent the average of 3 experiments (±s.d.). […] Data represent the average of 3 experiments (±s.d.). […] Data represent the average of 3 experiments (±s.d.).
FIGS. 5A-C illustrate comparative abilities of 968 and other benzo[a]phenanthridinones to inhibit the transforming activity of oncogenic Dbl and H-Ras. […] Histograms show the relative levels of Dbl-induced focus formation for the different treatments, compared to Dbl-induced focus formation measured in the presence of DMSO (i.e. solvent control). Data represent the average of 3 experiments (mean±s.d.). […] Histograms show the relative levels of Ras(G12V)-induced focus formation measured for the different treatments, compared to Ras(G12V)-induced focus formation measured in the presence of DMSO (solvent control). Data represent the average of 3 experiments (mean±s.d.). FIG. 5C NIH 3T3 cells stably expressing H-Ras(G12V) that were cultured in DMEM supplemented with 1% calf serum, with the indicated amounts of 968. After 6 days, cells are trypsinized and counted. 100% represents the number of cells counted in the absence of 968, i.e. 26×10^4 cells. Data represent the average of 3 experiments (mean±s.d.).

SKBR3 cells = test: Growth to high density and in low serum, SKBR3; type: cell-based, human; details: 10 μM
Protocol: as §1
100%=620 moles of glutamine hydrolyzed per minute per mole of enzyme. Data represent the average of 3 experiments (±s.d.). […] Following precipitation of the beads and re-suspension, the samples were analyzed by Western blotting with anti-V5 antibody. […] Data represent the average of 3 experiments (±s.d.). […] Data represent the average of 3 experiments (±s.d.). […] Data represent the average of 3 experiments (±s.d.). FIG. 3E NIH 3T3 cells transiently expressing Dbl were assayed for focus formation in the presence of 10 μM 968 alone or together with 7 mM dimethyl α-ketoglutarate. […] 100%=680 nM glutamine hydrolyzed per minute per 10^5 cells. […]

HMECs = test: Growth of normal human mammary epithelial cells; type: cell-based; details: 10 μM, MEGM complete medium, 6 days
[2] = target: T1, mouse GAC (E. coli-expressed mouse ortholog of human GAC) (Mus musculus, UniProt D3Z7P3); test: Recombinant glutaminase activity assay; type: biochemical
T1 construct: A plasmid encoding mouse GAC (residues 128-603) was cloned into the pET28a vector; His (N, cleaved yes); made in house; host or cells: E. coli (pET28a)
T1 sequence (D3Z7P3 128-603 isoform D3Z7P3-2): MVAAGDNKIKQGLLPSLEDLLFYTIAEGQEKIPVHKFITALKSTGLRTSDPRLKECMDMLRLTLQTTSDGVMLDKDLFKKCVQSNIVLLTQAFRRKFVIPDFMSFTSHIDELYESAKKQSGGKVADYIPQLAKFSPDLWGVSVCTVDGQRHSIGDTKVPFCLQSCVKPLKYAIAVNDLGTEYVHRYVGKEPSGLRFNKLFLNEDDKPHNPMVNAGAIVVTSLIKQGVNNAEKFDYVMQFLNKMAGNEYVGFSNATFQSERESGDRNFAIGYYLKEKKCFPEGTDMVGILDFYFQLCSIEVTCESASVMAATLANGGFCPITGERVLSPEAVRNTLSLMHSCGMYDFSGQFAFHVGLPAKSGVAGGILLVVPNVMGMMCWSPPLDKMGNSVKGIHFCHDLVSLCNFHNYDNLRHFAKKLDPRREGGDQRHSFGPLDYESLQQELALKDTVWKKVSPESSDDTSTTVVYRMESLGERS
Protocol: 100%=620 moles of glutamine hydrolyzed per minute per mole of enzyme. Data represent the average of 3 experiments (±s.d.). […] Following precipitation of the beads and re-suspension, the samples were analyzed by Western blotting with anti-V5 antibody. […] Data represent the average of 3 experiments (±s.d.). […] Data represent the average of 3 experiments (±s.d.). […] Data represent the average of 3 experiments (±s.d.). FIG. 3E NIH 3T3 cells transiently expressing Dbl were assayed for focus formation in the presence of 10 μM 968 alone or together with 7 mM dimethyl α-ketoglutarate. […] 100%=680 nM glutamine hydrolyzed per minute per 10^5 cells. Data are the average of 3 experiments (±s.d.). […] 100%=750 nM glutamine hydrolyzed per minute per 10^5 cells. Data represent the average of 3 experiments (±s.d.).
The activity of the E. coli-expressed recombinant mouse ortholog of human GAC were assayed in the presence of 0 ([…]), 10 (∇) or 20 (▪) μM 968 and inorganic phosphate in the form of dipotassium hydrogen phosphate. […] The data are plotted as GA activity as function of varying concentrations of glutamine or inorganic phosphate. The data are the average of 3 experiments and are plotted as mean±SEM.
Glutaminase activity assays were performed on recombinant enzyme as previously described (Kenny et al., “Bacterial Expression, Purification and Characterization of Rat Kidney-Type Mitochondrial Glutaminase,” Protein Expr. Purif. 31:140-148 (2003), which is hereby incorporated by reference in its entirety). A plasmid encoding mouse GAC (residues 128-603) was cloned into the pET28a vector and the protein was expressed with an N-terminal histidine (His)-tag. The tag was cleaved using thrombin and the protein was further purified by anion-exchange and gel-filtration chromatography. […] The reaction mixture was incubated at room temperature for 45 minutes and the absorbance at 340 nm was recorded for each sample against a water blank. The absorbance of the sample with just the cocktail mixture was subtracted from each reading to calculate the activity of the enzyme.

Structure (SMILES): CN(C)c1ccc(C2Nc3ccc4ccccc4c3C3=C2C(=O)CC(C)(C)C3)cc1Br (centres unmarked) [Compound 968, 5-[3-bromo-4-(dimethylamino)phenyl]-2,2-dimethyl-2,3,5,6-tetrahydrobenzo[a]]
- Dbl-induced colony formation in soft agar ([1]; 10 μM): blocked
- potency against Dbl-induced transformation compared to oncogenic H-Ras ([1]; focus formation in NIH 3T3 cells or growth in low serum): more potent inhibitor of Dbl-induced transformation
- concentration at which active in blocking Dbl-induced transformation ([1]; focus-forming assays or growth in low serum): 1 to 10 µM
- growth in low serum (SKBR3 cells; 1% fetal bovine serum): inhibits their growth
- growth to high density (SKBR3 cells; 10% fetal bovine serum, 6 days): inhibits their growth
- effect on growth of HMECs (HMECs): little effect
- inhibition of enzymatic activity of purified mouse GAC [2]: inhibits the enzymatic activity
- mode of inhibition ([2]; 0, 10 or 20 μM, glutamine or inorganic phosphate varied): neither competitive versus substrate (glutamine) nor inorganic phosphate

From patent publication US20130252983A1, “ACTIVATING PHOSPHORYLATION SITE ON GLUTAMINASE C” (CORNELL UNIVERSITY, priority 2010, published 2013)
